Literature values, collected in patent US10172913B2, “Orally disintegrating solid pharmaceutical dosage unit containing a partus control substance” (Oxytone Bioscience B.V., priority 2014, dated 2019).
Bridge positions count the residues as written; N and C are the ends. Square brackets hold non-standard residues; d marks the D form. Peptide text beside a SMILES is read from it. Orn = NCCC[C@H](N)C(=O)O; Mpa = O=C(O)CCS

Assays:
[1] = lyophilized
[2] = in vivo

time stable at room temperature [1] [weeks]	half-life in the blood [2]	SMILES
3		CCOc1ccc(C[C@H]2NC(=O)CCSSC[C@@H](C(=O)N3CCC[C@H]3C(=O)N[C@@H](CCCN)C(=O)NCC(N)=O)NC(=O)[C@H](CC(N)=O)NC(=O)[C@H]([C@@H](C)O)NC(=O)[C@H]([C@@H](C)CC)NC2=O)cc1 [atosiban] ([Mpa][dY](Et)ITNCP[Orn]G-NH2; disulfide 1-6)
	about three	CC[C@H](C)[C@@H]1NC(=O)[C@H](Cc2ccc(O)cc2)NC(=O)[C@@H](N)CSSC[C@@H](C(=O)N2CCC[C@H]2C(=O)N[C@@H](CC(C)C)C(=O)NCC(N)=O)NC(=O)[C@H](CC(N)=O)NC(=O)[C@H](CCC(N)=O)NC1=O [Oxytocin, cysteine-tyrosine-isoleucine-glutamine-asparagine-cysteine-proline-leucine-glycine-amide]
